Data: patent US20040120938A1, “Ingestible compositions comprising antibacterial agents” (The University of Bath, priority 1998, published 2004)
pIC50: −log10 of the molar value. Read-outs that look alike come from different tables or passages of the source.

Assays:
[1] = tested on: nitric oxide (NO) release; experiment: NO release from pure bovine xanthine oxidase with nitrite and NADH under hypoxia (Tests 1-3); format: biochemical
Protocol: The production of nitric oxide in the following tests and examples was analysed using an ozone chemiluminescence assay in a continuous flow apparatus (Sievers NOA 280) that allows the real time analysis of NO production. The apparatus was modified to allow a constant stream of nitrogen to flow into the reaction chamber. Chemiluminescence data were collected by a data acquisition system; the mean NO produced in parts per billion (ppb) was calculated from readings taken every second and shown as ppb or mV.
Progress curves, of molar production of NO against time, were calculated by taking into account the gas flow and the mean level of NO. Molar production of NO was expressed as ppb/sec or mV/sec. Reactions were carried out in a final volume of 1 ml at 37° C. in an atmosphere of <1% oxygen (Stathkelvin combination needle oxygen electrode, Diamond General Corp.).
The release of nitric oxide (NO) from a composition including pure bovine xanthine oxidase under hypoxia conditions was studied. The samples studied comprised reduced β-Nicotinamide adenine dinucleotide (NADH) and nitrite (NO2^−) and pure bovine xanthine oxidase.
Bovine xanthine oxidase was diluted with PBS as indicated in Table 1 below to give 300 μl of enzyme mixture. The enzyme mixture (300 μl) was mixed with 700 μl of a substrate mixture to give an assay volume of 1 ml. The substrate mixture comprised nitrite which was added to the assay to give a concentration of 1 mM and NADH which was added to give a concentration of 0.3 mM. Where, for example in Tests 2 to 4 below, additional components are added to the sample, the amount of PBS is adjusted accordingly to give an assay volume of 1 ml. The sample was placed in the reaction vessel of the NO determination apparatus under a nitrogen atmosphere and the generation of NO was measured and the results calculated as a steady state rate in mV/s.
Using the method described above in respect of Test 1, the effect of the variation in the concentration of NADH on the production of NO was investigated. 4 mM NADH was diluted with PBS to give the relevant concentration.
Using the method described above in respect of Test 1, the effect of the variation in the concentration of nitrite on the production of NO was investigated. As for Test 1, the concentration of NADH was 0.3 mM. 1M nitrite (or 100 mM nitrite, where appropriate for low concentrations) was diluted with PBS to give the relevant concentration.

[2] = tested on: E. coli; experiment: Xanthine oxidase derived species on cell viability at a range of oxygen concentrations (Test 8(c)); format: cell-based
Protocol: E. coli were cultured as described above. Aliquots were taken and incubated with a reaction system consisting of bovine Xanthine oxidase (XO) (53.2 μgml^−1), nicotinamide adenine dinucleotide in reduced form (NADH) (300 μM), sodium nitrite, (NaNO2) 1 mM and oxygen at a range of concentrations. Desired oxygen concentrations were generated by delivery into the system of a mixture of oxygen and nitrogen in appropriate proportions and determined using a Clark-type O2 electrode. This reaction was followed at 37° C. for 30 min with mixing before an aliquot was taken and plated onto agar and incubated in a warm room at 37° C. Viable cells formed colonies on the agar and were counted. Viable cell counts were performed in triplicate and the results expressed as a percentage viable count in each case related to a non enzyme control of the same oxygen concentration. […] The range of oxygen tensions used covers those in which XO has previously been considered to be active, namely superoxide generation (21% O2 saturation) and nitric oxide production (0% O2 saturation). A certain amount of killing is seen at both of these extremes as compared with control samples. However, it is only at an intermediate oxygen concentration that the greatest amount of killing is observed. […] Corresponding data obtained in respect of S. enteritidis indicated a peak killing oxygen concentration of 0% for that cell type.
Replacement of NADH in the above method by 100 μM hypoxanthine, with a sodium nitrite concentration of 2.5 μM led to slightly higher peak killing oxygen concentrations (6.4% for E. coli and 1.5% for S. enteritidis).

[3] = tested on: S. enteritidis; experiment: as above; format: cell-based
[4] = tested on: Staphylococcus aureus 6751; experiment: Bacterial growth rate by optical density, 96 well plate (Tests 8(f), 8(g)); format: cell-based
Protocol: (§1) Bacteria were seeded into nutrient broth (NB) and grown over night at 37° C. The culture was then counted and normalised to give a final cell concentration of 1.8×10^7 cells well^−1 into the wells of a 96 well plate in fresh nutrient broth. The optical density of each well was monitored every 15 minutes as a measure of the growth rate of each bacterial species. Growth curves were generated for each species and the maximal rate of growth (logarithmic phase) was measured. Cells were treated to a range of experimental conditions in which the growth rate of cells was related to a control of untreated cells. The results were expressed as a percentage of the growth rate of the control cells.
(§2) (i) At a fixed concentration of hypoxanthine (100 μM) a range of purified XO protein concentrations were added at time 0 minutes. The optical density was followed and the growth rate calculated.
(§3) (ii) The growth rate was also measured in relation to the concentration of hypoxanthine, using 30 μg of XO with cells seeded as described above.
(§4) (iv) The effect of XO hypoxanthine addition was measured on the growth rate of a range of bacterial species with 30 […] XO at varying hypoxanthine concentrations using cells seeded as described above.

[5] = tested on: Escherichia coli NCTC 86; experiment: Peroxynitrite effect on cell viability, viable colony count (Test 8(a)); format: cell-based; conditions: E. coli; for pIC50: Escherichia coli, NCTC86
Protocol: To obtain cells used in this test, the infective bacterial strain Escherichia coli NCTC 86 (E. coli) was cultured on nutrient agar at 37° until colony formation occurred, usually overnight. This stock culture was used for subsequent experiments including sub-culturing in nutrient broth and plated onto agar weekly. Experimental cultures of E. coli were set up overnight in nutrient broth from single colonies on an agar plate. Cells were harvested and counted using a standard curve of known absorbance at 470 nm against viable cell count. Peroxynitrite was generated by the method of Crow et al, Biochem. 34, p. 3544-3552 (1995). […] The concentration of ONOO^− formed was measured using an absorption coefficient of 1670 M^−1 cm^−1 in a spectrophotometer at a wavelength of 303 nm. Solutions of different concentrations for use in (a) below were obtained by dilution of the product solution using PBS. Cells cultured as described above were diluted to suitable working concentrations (10^4-10^5 Cells Ml^−1) in sterile phosphate buffered saline (PBS). ONOO^− at a range of concentrations from […] to 0.01 μm was added as a bolus dose to cells and incubated at room temperature for ten minutes. Aliquots were taken from the cell cultures and plated on to nutrient agar and incubated in a warm room at 37° C. overnight. Viable cells formed colonies on the agar and were counted. The number of colonies formed was related to an untreated control and a graph of the results is shown in FIG. 1, which illustrates the effect of ONOO^− on cell viability.

[6] = tested on: S. enteritidis; experiment: Peroxynitrite effect on cell viability (Test 8(a)); format: cell-based; conditions: Salmonella enterica
Protocol: Cells cultured as described above were diluted to suitable working concentrations (10^4-10^5 Cells Ml^−1) in sterile phosphate buffered saline (PBS). ONOO^− at a range of concentrations from […] to 0.01 μm was added as a bolus dose to cells and incubated at room temperature for ten minutes. Aliquots were taken from the cell cultures and plated on to nutrient agar and incubated in a warm room at 37° C. overnight. Viable cells formed colonies on the agar and were counted. The number of colonies formed was related to an untreated control and a graph of the results is shown in FIG. 1, which illustrates the effect of ONOO^− on cell viability.

[7] = tested on: contaminants of semi-skimmed bovine milk (postulated Lactobacilli sp.); experiment: Peroxynitrite addition to semi-skimmed bovine milk, colony forming units (Test 8(b)); format: cell-based; conditions: 4° C., four days
Protocol: Commercially produced bovine milk was purchased in semi-skimmed form. Aliquots were taken on day one of experimentation and plated onto nutrient agar and grown overnight at 37° C. The number of colonies formed following incubation was counted. The remaining milk was divided into three portions after removal of those aliquots. No peroxynitrite was added to the first portion, which was the control. A single bolus dose of 100 μM ONOO^− was added to the second portion on day one, and the third portion was treated by addition of a daily bolus dose of 100 μM ONOO^−. The portions were stored during the four days of the test at a temperature of 4° C. Each day, aliquots were taken from each portion and cultured overnight at 37° C. for viable count determination. […] Although the contaminants were not formally identified, it was postulated that they included at least Lactobacilli sp., that being a cell type often present in milk.

[8] = tested on: Lactobacillus casei 6375; experiment: Bacterial growth rate by optical density, 96 well plate (Tests 8(f), 8(g)); format: cell-based; conditions: Lacticaseibacillus casei, 6375; Lactobacillus casei; bolus at beginning of logarithmic growth; read-out: Half maximal concentration ONOO -
Protocol: as §1, §2, §3, §4

[9] = tested on: E. coli; experiment: Peroxynitrite scavenger and XO systems on bacterial growth curves in nutrient broth (Test 8(d)); format: cell-based
Protocol: E. coli were seeded into nutrient broth at 2.10^7 cell ml^−1 and incubated at 37° C. under atmospheric air conditions (that is, 21% oxygen saturation). Four separate test samples of volume 1 ml were prepared by addition at 1 hour of incubation as follows:
1 Peroxynitrite at concentration 100 μM.
2 Peroxynitrite at 100 μM and quercetin (peroxynitrite scavenger) at 100 μM.
3 Xanthine oxidase (53.2 μg) and xanthine at 100 μM.
4 Xanthine oxidase (53.2 μg) and NADH at 100 μM.
Corresponding controls were also prepared, and the growth curves generated over time determined by monitoring absorbance.

xanthine oxidoreductase [XOR]
NO release ([1]; XOR 21.4 μg, nitrite 0 mM, NADH 0.3 mM): 0.00 mV/s | NO release ([1]; XOR 21.4 μg, nitrite 1 mM, NADH 0.3 mM): 53.75 mV/s | NO release ([1]; XOR 21.4 μg, nitrite 5 mM, NADH 0.3 mM): 184.8 mV/s | NO release ([1]; XOR 21.4 μg, nitrite 10 mM, NADH 0.3 mM): 378.10 mV/s | NO release ([1]; XOR 21.4 μg, nitrite 25 mM, NADH 0.3 mM): 407.55 mV/s | NO release ([1]; XOR 21.4 μg, nitrite 50 mM, NADH 0.3 mM): 474.05 mV/s | NO release ([1]; XOR 53.5 μg, NADH 0.00 mM): 0.00 mV/s | NO release ([1]; XOR 53.5 μg, NADH 0.10 mM): 30.45 mV/s | NO release ([1]; XOR 53.5 μg, NADH 0.25 mM): 66.80 mV/s | NO release ([1]; XOR 53.5 μg, NADH 0.50 mM): 92.55 mV/s | NO release ([1]; XOR 53.5 μg, NADH 1.00 mM): 103.35 mV/s | NO release ([1]; XOR 53.5 μg, NADH 2.00 mM): 109.20 mV/s | NO release ([1]; XOR 107.0 μg, NADH 0.00 mM): 0.00 mV/s | NO release ([1]; XOR 107.0 μg, NADH 0.10 mM): 74.45 mV/s | NO release ([1]; XOR 107.0 μg, NADH 0.25 mM): 142.70 mV/s | NO release ([1]; XOR 107.0 μg, NADH 0.50 mM): 192.65 mV/s | NO release ([1]; XOR 107.0 μg, NADH 1.00 mM): 230.05 mV/s | NO release ([1]; XOR 107.0 μg, NADH 2.00 mM): 264.65 mV/s | NO release ([1]; XOR protein in assay 21.4 μg, 1 mM nitrite, 0.3 mM NADH): 50.05 mV/s | NO release ([1]; XOR protein in assay 53.5 μg, 1 mM nitrite, 0.3 mM NADH): 76.35 mV/s | NO release ([1]; XOR protein in assay 107.0 μg, 1 mM nitrite, 0.3 mM NADH): 128.55 mV/s | NO release ([1]; XOR protein in assay 160.5 μg, 1 mM nitrite, 0.3 mM NADH): 187.20 mV/s | NO release ([1]; XOR protein in assay 214.0 μg, 1 mM nitrite, 0.3 mM NADH): 225.75 mV/s | optimum pH for the production of NO under the hypoxic conditions ([1]; hypoxic conditions): ~5.5 | killing above about 8% oxygen ([2]; E. coli): little or no killing | oxygen concentration of most effective killing ([2]; E. coli, XO 53.2 μg/ml, NADH 300 μM, NaNO2 1 mM, 37° C., 30 min): approximately 3 % of saturation | killing ([2]; E. coli, oxygen concentration about 21%): about 5% | killing above about 8% oxygen [3]: little or no killing | peak killing oxygen concentration ([3]; XO, NADH, NaNO2): 0% | killing ([3]; oxygen concentration about 21%): about 10% | growth inhibition ([4]; Staphylococcus, hypoxanthine 100 μM, range of XO concentrations): less marked growth inhibition

O=c1[nH]c(=O)c2[nH]cnc2[nH]1 [xanthine]
killing using xanthine instead of hypoxanthine ([2]; XO system, cell type not specified): More limited killing

O=NOO [Peroxynitrite]
effect on cell viability (viable count, FIG. 1) ([5]; range of concentrations, ten minutes): profound inhibitory effect | pIC50 ([5]; bolus dose, ten minutes at room temperature in PBS, read-out: IC50 (concentration that reduces viability to 50% of control viable count)): 5.85 | pIC50 ([5]; value matches Test 8(a) viability IC50, read-out: Half maximal concentration ONOO -): 5.85 | pIC50 ([6]; S. enteritidis, similar conditions, read-out: IC50 (concentration that reduces viability to 50% of control viable count)): 5.69 | pIC50 ([6]; Salmonella enteritidis, value matches Test 8(a) viability IC50, read-out: Half maximal concentration ONOO -): 5.70 | colony forming units (CFU) in milk compared to control ([7]; daily bolus dose of 100 μM, p<=0.01, also below single dose p<=0.05): reduced the CFU significantly below control | colony forming units (CFU) in milk compared to control ([7]; single bolus dose of 100 μM on day one, p<=0.01): reduced the CFU significantly | pIC50 ([4]; 6751, Staphylococcus aureus, bolus at beginning of logarithmic growth, read-out: Half maximal concentration ONOO -): 3.54 | pIC50 [8]: 4.26 | killing (growth curve) ([9]; 100 μM added at 1 hour, 21% oxygen saturation): strong killing

O=c1c(O)c(-c2ccc(O)c(O)c2)oc2cc(O)cc(O)c12 [quercetin]
effect on peroxynitrite killing ([9]; 100 μM with peroxynitrite 100 μM): clear effect in reducing killing
